{
  "source": "patent US20210267978A1",
  "about": "“NANOPARTICLE FORMULATIONS OF IKE AND METHODS OF USE THEREOF” (The Trustees of Columbia University in the City of New York, priority 2018, published 2021)",
  "key": {"[1]": {"test_system": "SUDHL-6 cells", "assay": "Free fatty acid cell survival test with or without IKE (CellTiter-Glo)", "type": "cell-based", "details": "for toxicity of free fatty acid to cells: 100 μM, 24 hours; for effect of free fatty acid on IKE-induced ferroptosis: 10 μM fatty acid with IKE", "excerpt": "Relative Area Under Curve (AUC) to DMSO cotreatment was used to indicate the sensitization or protection effect of free fatty acids to IKE-induced ferroptosis."}, "[2]": {"assay": "Erastin and IKE solubility measurements (nephelometry)", "type": "physicochemical", "description": "Solubility measurement samples were prepared in a 96-well Corning Costar plate with two at 1% and 5% DMSO v/v with a total sample volume of 200 μL in MilliQ water. A BMG Labtech NEPHELOstar nephelometer was used to measure turbidity of the samples with the following parameters per the instrument manufacturer: Gain=80, Laser Focus=2.50 mm, and Laser Intensity=90%. Samples were shaken in the nephelometer by orbital shaking for 3 s prior to the turbidity measurement. Sample values were blanked in the instrument software using the corresponding water and DMSO condition values. Turbidity 4000 NTU Calibration Standard-Formazin (Millipore-Sigma) was used as a positive control for all turbidity measurements. The turbidity of each sample was measured within 20 minutes of initial preparation. After the initial measurement, the sample plates were covered with aluminum sealing film and allowed to sit overnight at room temperature prior to re-measuring."}, "[3]": {"test_system": "SUDHL6 cells", "assay": "qPCR analysis of gene expression in cell culture", "type": "cell-based", "details": "SUDHL6 cells", "description": "To perform qPCR analysis in cell culture, DLBCL cells were treated with 0-10 μM IKE, Fer-1, or β-Me for the indicated times. RNA was extracted using the Qiashredder and Qiagen RNeasy Mini kits (Qiagen) according to the manufacture's protocol. 2 μg RNA from each sample was reversed transcribed to cDNA using a High Capacity cDNA Reverse Transcription Kit (Thermo Fisher Scientific, 4368814). Quantitative PCR reactions were performed using Power SYBR Green PCR Master Mix (Applied Biosystems) with triplicate measurement on ViiA 7 Real-Time PCR instrument (Thermo Fischer). HPRT1 was used as an internal reference. Differences in mRNA levels compared with HPRT1 were computed between vehicle and experimental groups using the ΔΔCt method. The primers used in the study were listed below."}, "[4]": {"test_system": "SUDHL 6 cells", "assay": "Measurement of IKE PEG-PLGA cellular activity (CellTiter-Glo, 24 h)", "type": "cell-based", "details": "fer-1 co-treatment", "description": "DLBCL cells or HT-1080 cells were plated at 2,000 cells per well in white 384-well plates (32 μL per well) in technical duplicates and incubated overnight. The cells were then treated with 8 μL medium containing a two-fold dilution series of vehicle 1 (DMSO), IKE, Fer-1, vehicle 2 (unfunctional PEG-PLGA nanoparticles), or IKE PEG-PLGA nanoparticles. The final concentration of IKE in PEG-PLGA nanoparticles were measured by LC-MS as described in the sections below. After 24 h incubation with compounds, 40 μL of 50% CellTiter-Glo (Promega) 50% cell culture medium was added to each well and incubated at room temperature with shaking for 15 min. Luminescence was measured using a Victor X5 plate reader (PerkinElmer). All cell viability data were normalized to the DMSO vehicle condition. Experiments were performed in three independent times with different passages for each cell line."}, "[5]": {"test_system": "DLBCL cell lines", "assay": "Fer-1 co-treatment rescue of IKE-induced cell death (CellTiter-Glo)", "type": "cell-based", "details": "co-treatment with IKE, 24 hours", "description": "The cell viability was measured by co-treating cells with a two-fold series dilution of IKE (starting from 100 μM) and two-fold series dilution of Fer-1 (starting from 200 μM) for 24 hours followed by a Cell Titor-Glo luminescent cell viability test. […] Data are plotted as the mean±s.d., n=2 biologically replicates. Three independent experiments were performed with similar results.\nDLBCL cells were plated at 10,000 cells per well in white 384-well plates (32 μL per well) in technical duplicates and incubated overnight. The cells were then treated with 8 μL medium containing a two-fold dilution series of vehicle (DMSO), IKE (starting from 100 μM) with or without Fer-1 (starting from 200 μM). After 24 h incubation, 40 μL of 50% CellTiter-Glo (Promega) 50% cell culture medium was added to each well and incubated at room temperature with shaking for 15 min. Luminescence was measured using a Victor X5 plate reader (PerkinElmer). All cell viability data were normalized to the DMSO vehicle condition. Experiments were performed three independent times with different passages for each cell line."}, "[6]": {"test_system": "SUDHL6 cells", "assay": "C-11 BODIPY lipid peroxidation measurement (flow cytometry)", "type": "cell-based", "details": "10 μM fer-1 co-treatment", "description": "0.20 million SUDHL-6 cells were seeded in sixc^− well plates and treated with DMSO, IKE, or Fer-1 at specific concentration. The final cell density of 0.05 million cells/mL. After 24 h, cells were harvested by centrifuging at 300×g for 5 min. Cells were resuspended in 500 μL HBSS containing 2 μM C11-BODIPY (BODIPY 581/591 C11) (Thermo Fisher Scientific, D3861) and incubated at 37° C. for 15 min. Cells were pelleted and resuspended in HBSS. Fluorescence intensity was measured on the FL1 channel with gating to record live cells only (gate constructed from DMSO treatment group). A minimum of 10,000 cells were analyzed per condition."}, "[7]": {"test_system": "GSH", "details": "Narang et al., 2007; Lo et al., 2010; cited from earlier work"}, "[8]": {"test_system": "SUDHL6 cells", "assay": "Reduced glutathione measurement in cell culture (Fluorometric-Green)", "type": "cell-based", "details": "10 μM β-ME co-treatment, 24 h", "description": "2.4 million cells were incubated with DMSO, IKE, or β-mercaptoethanol (β-Me) at a density of 0.2 million cells/mL for 24 h. Cells were collected and washed with cold PBS once. Cell number was counted by Vi-Cell. Cells were resuspended in ice cold RIPA buffer (Thermo Fisher Scientific, 89900) with 100 μL/one million cells. Samples were centrifuged for 15 min at 4° C. at 17,000×g. The resulting supernatant was deproteinized using a trichloroacetic acid and sodium bicarbonate solution and kept on ice. The sample was diluted with assay buffer provided in GSH/GSSG Ratio Detection Assay Kit (Abcam, ab13881) ten-fold. Reduced glutathione (GSH) levels were determined using Fluorometric-Green provided in the kit following the manufacture's protocol. 384-well (Corning) low volume black flat bottom polystyrene non-treated microplates 1230F99 were used in this experiment."}},
  "data": [
    {"smiles": "CCCCC/C=C\\C/C=C\\C/C=C\\C/C=C\\CCCC(=O)O", "note": "[arachidonic acid]", "values": [
      {"measurement": "toxicity of free fatty acid to cells", "setting": "[1]", "value": "toxic to cells"}
    ]},
    {"smiles": "CCOc1ccccc1-n1c(C(C)N2CCN(C(=O)COc3ccc(Cl)cc3)CC2)nc2ccccc2c1=O", "note": "(stereo not shown) [erastin, reference compound]", "values": [
      {"measurement": "water solubility (in words)", "setting": "[2]", "value": "low water solubility"}
    ]},
    {"smiles": "CCOC(=O)c1ccc(NC2CCCCC2)c(N)c1", "note": "[fer-1, ferrostatin-1, reference compound]", "values": [
      {"measurement": "effect of co-treatment on IKE-induced PTGS2 upregulation", "setting": "[3]; 10 μM Fer-1 with 500 nM IKE for 6 hours", "value": "prevented"},
      {"measurement": "effect of co-treatment on IKE-induced CHAC1 upregulation", "setting": "[3]; Fer-1 co-treatment", "value": "did not inhibit"},
      {"measurement": "effect of co-treatment on cell death induced by IKE and IKE PEG-PLGA NPs", "setting": "[4]", "value": "rescued cell death"},
      {"measurement": "effect of co-treatment on cell death induced by IKE", "setting": "[5]", "value": "rescued cell death"},
      {"measurement": "effect of co-treatment on IKE-induced lipid ROS signal (C11-BODIPY)", "setting": "[6]", "value": "inhibited this signal"}
    ]},
    {"smiles": "CCCCCCCC/C=C\\CCCCCCCC(=O)O", "note": "[oleic acid]", "values": [
      {"measurement": "effect of free fatty acid on IKE-induced ferroptosis", "setting": "[1]", "value": "protected against ferroptosis"}
    ]},
    {"smiles": "CCCCCC/C=C\\CCCCCCCC(=O)O", "note": "[palmitoleic acid]", "values": [
      {"measurement": "effect of free fatty acid on IKE-induced ferroptosis", "setting": "[1]", "value": "protected against ferroptosis"}
    ]},
    {"smiles": "O=C(O)c1cc(/N=N/c2ccc(S(=O)(=O)Nc3ccccn3)cc2)ccc1O", "note": "[sulfasalazine]", "values": [
      {"measurement": "IC50 for GSH depletion", "setting": "[7]", "value": "millimolar range"}
    ]},
    {"smiles": "OCCS", "note": "[β-ME, β-mercaptoethanol, reference compound]", "values": [
      {"measurement": "effect of co-treatment on GSH depletion by IKE", "setting": "[8]", "value": "reversed"},
      {"measurement": "effect of co-treatment on IKE-induced upregulation of SLC7A11, CHAC1 and PTGS2 mRNAs", "setting": "[3]; 10 μM β-Me with 500 nM IKE for 6 hours", "value": "prevented"}
    ]},
    {"smiles": "CCCCC/C=C\\C/C=C\\C/C=C\\CCCCC(=O)O", "note": "[γ-linolenic acid]", "values": [
      {"measurement": "toxicity of free fatty acid to cells", "setting": "[1]", "value": "toxic to cells"}
    ]}
  ]
}
